Measurements published in the supplement of paper PMC11061612.

What was measured:
Assay in all cases: Bliss excess, mean over the matrix (fraction); higher = more synergy
[1] = system: RD (Rhabdomyosarcoma)
Outline: (§1)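 After 24 hours at 37°C and 5% CO2 in 1536-well plates, cells in DMEM/F12 or RPMI plus 10% FBS received two-drug dose matrices for 72 hours. Viability came from CellTiter-Glo 2.0 luminescence and was scaled as inhibition, anchored at 0 by vehicle wells and at 1 by blank wells. Combination Emax is taken as the second-highest inhibition in the matrix, and Bliss excess as the observed combination effect less EA + EB − EA·EB, with EA and EB the single-agent effects.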

[2] = system: NCI-H520 (Squamous Cell Lung Carcinoma)
Outline: as §1

[3] = system: SK-GT-4 (Esophageal Adenocarcinoma)
Outline: as §1

[4] = system: HCC1419 (Breast Carcinoma)
Outline: as §1

[5] = system: 8505C (Thyroid Gland Carcinoma)
Outline: as §1

[6] = system: M059J (Glioblastoma)
Outline: as §1

[7] = system: KYSE-270 (Esophageal Squamous Cell Carcinoma)
Outline: as §1

[8] = system: VMRC-RCZ (Kidney Carcinoma)
Outline: as §1

[9] = system: SNU-398 (Hepatocellular Carcinoma)
Outline: as §1

[10] = system: DAN-G (Pancreatic Carcinoma)
Outline: as §1

[11] = system: MOG-G-CCM (Low Grade Glioma)
Outline: as §1

[12] = system: NCI-H661 (Non-Small Cell Lung Carcinoma)
Outline: as §1

[13] = system: RPMI-8226 (Plasma Cell Myeloma)
Outline: as §1

[14] = system: NCI-H929 (Plasma Cell Myeloma)
Outline: as §1

[15] = system: ST486 (Burkitt's Lymphoma)
Outline: as §1

[16] = system: KMS-12-BM (Plasma Cell Myeloma)
Outline: as §1

[17] = system: COR-L279 (Small Cell Lung Carcinoma)
Outline: as §1

[18] = system: SJSA-1 (Osteosarcoma)
Outline: as §1

[19] = system: CW-2 (Colorectal Carcinoma)
Outline: as §1

[20] = system: SK-GT-2 (Gastric Carcinoma)
Outline: as §1

Structure (SMILES)	Bliss excess [1]	Bliss excess [2]	Bliss excess [3]	Bliss excess [4]	Bliss excess [5]	Bliss excess [6]	Bliss excess [7]	Bliss excess [8]	Bliss excess [9]	Bliss excess [10]	Bliss excess [11]	Bliss excess [12]	Bliss excess [13]	Bliss excess [14]	Bliss excess [15]	Bliss excess [16]	Bliss excess [17]	Bliss excess [18]	Bliss excess [19]	Bliss excess [20]
Cc1c2c(nn1C)CSCc1cc(n(C)n1)CSc1cc(c3ccccc3c1)OCCCc1c(C(=O)O)n(C)c3c-2c(Cl)ccc13 [AZD5991] + CC1(C)CCC(CN2CCN(c3ccc(C(=O)NS(=O)(=O)c4ccc(NCC5CCOCC5)c([N+](=O)[O-])c4)c(Oc4cnc5[nH]ccc5c4)c3)CC2)=C(c2ccc(Cl)cc2)C1 [Venetoclax] (first compound max 1 µM, 7x7, partner max 1 µM)	0.0081	-0.0019	-0.0914	0.0157	-0.0253	-0.0539	0.0348	-0.0605	-0.0013	-0.0352	-0.0199	0.052	0.007	-0.033	0.0088	0.0301	0.0071	-0.0941	0.0005	-0.0035
Cc1c2c(nn1C)CSCc1cc(n(C)n1)CSc1cc(c3ccccc3c1)OCCCc1c(C(=O)O)n(C)c3c-2c(Cl)ccc13 [AZD5991] + CCN(CCO)CCCOc1ccc2c(Nc3cc(CC(=O)Nc4cccc(F)c4)[nH]n3)ncnc2c1 [AZD2811] (first compound max 1 µM, 7x7, partner max 1 µM)	0.0268	0.0632	-0.0303	-0.0638	0.119	-0.0074	0.0998	0.016	0.0359	0.0055	0.0013	0.0328	0.0744	0.0409	-0.0575	0.0257	0.0162	0.0839	0.0059	0.039
Cc1c2c(nn1C)CSCc1cc(n(C)n1)CSc1cc(c3ccccc3c1)OCCCc1c(C(=O)O)n(C)c3c-2c(Cl)ccc13 [AZD5991] + CN(C)CCCOc1ccc(-c2ccc3ncc4c(c3c2)n(C2CCOCC2)c(=O)n4C)cn1 [AZD0156] (first compound max 1 µM, 7x7, partner max 1 µM)	0.0095	-0.0011	-0.031	0.0105	-0.137	0.006	0.0347	-0.018	-0.0018	0.0141	-0.0067	-0.0054	0.0147	-0.0121	-0.0716	-0.0445	-0.0051	0.0256	0.0041	0.0228
Cc1c2c(nn1C)CSCc1cc(n(C)n1)CSc1cc(c3ccccc3c1)OCCCc1c(C(=O)O)n(C)c3c-2c(Cl)ccc13 [AZD5991] + C[C@@H]1COCCN1C2=NC(=NC(=C2)C3(CC3)[S@](=N)(=O)C)C4=C5C=CNC5=NC=C4 [AZD6738] (first compound max 1 µM, 7x7, partner max 10 µM)	0.0482	-0.0091	-0.0038	-0.0091	0.0148	-0.0165	0.0289	0.0308	0.0504	0.0265	-0.0252	0.0528	0.008	-0.0296	0.0248	-0.009	-0.0057	0.0711	0.0514	0.026
Cc1c2c(nn1C)CSCc1cc(n(C)n1)CSc1cc(c3ccccc3c1)OCCCc1c(C(=O)O)n(C)c3c-2c(Cl)ccc13 [AZD5991] + C[C@@H](Nc1cc(F)cc(F)c1)c1cc(C(=O)N(C)C)cc2c(=O)cc(N3CCOCC3)oc12 [AZD8186] (first compound max 1 µM, 7x7, partner max 3 µM)	0.0195	-0.0474	-0.0185	-0.0038	-0.0043	-0.0842	0.027	0.0141	-0.0004	0.0051	-0.0316	0.0181	-0.0219	-0.0218	-0.0659	0.0019	-0.0011	-0.105	0.0051	0.015
Cc1c2c(nn1C)CSCc1cc(n(C)n1)CSc1cc(c3ccccc3c1)OCCCc1c(C(=O)O)n(C)c3c-2c(Cl)ccc13 [AZD5991] + Cc1cc2ncnn2cc1Nc1ncc2c(n1)n(C1CCOCC1)c(=O)n2C [AZD7648] (first compound max 1 µM, 7x7, partner max 10 µM)	-0.049	-0.0453	-0.0651	-0.0196	-0.0125	-0.0726	-0.0342	-0.0405	-0.0125	-0.0402	-0.0394	-0.0546	-0.0436	0.0091	-0.053	-0.0033	0.0671	0.0585	0.0242	0.0164
Cc1c2c(nn1C)CSCc1cc(n(C)n1)CSc1cc(c3ccccc3c1)OCCCc1c(C(=O)O)n(C)c3c-2c(Cl)ccc13 [AZD5991] + Cn1cnc2c(F)c(Nc3ccc(Br)cc3Cl)c(C(=O)NOCCO)cc21 [Selumetinib] (first compound max 1 µM, 7x7, partner max 3 µM)	0.039	-0.0116	-0.0385	0.0366	0.0319	-0.102	0.0409	-0.0777	0.0354	0.0588	-0.0241	-0.0169	0.0045	0.0275	0.07	-0.0124	-0.0172	-0.0733	0.0226	0.016
